Consider three compounds from US20160244845A1, “METHOD FOR DETERMINING THE PROGNOSIS OF PANCREATIC CANCER” (AB SCIENCE, priority 2013, published 2016).

The subject of experiment [1] is pancreatic cancer patients. The note with it: cited from earlier work.
In experiment [2] the test system is pancreatic cancer patients. Nature of the experiment: Clinical phase III study AB07012 (ancillary pharmacogenomic study): overall survival of pancreatic cancer patients. The note with it: ACOX1 subgroup, DCt cut-off <=3.05; 95% CI [0.10; 0.51]; p-value 0.001.

Take `C#Cc1cccc(Nc2ncnc3cc(OCCOC)c(OCCOC)cc23)c1` [Erlotinib]: in experiment [1] (in combination treatment with gemcitabine), the “overall survival (OS) compared to gemcitabine treatment alone” value was “therapeutic benefit”.

As for `Cc1ccc(NC(=O)c2ccc(CN3CCN(C)CC3)cc2)cc1Nc1nc(-c2cccnc2)cs1` [Masitinib], the “hazard ratio (masitinib treatment effect with respect to placebo)” value in experiment [2] amounted to 0.23.

Consider Folfirinox, for which the “survival rates after 2 years compared to gemcitabine alone” value in experiment [1] (pancreatic cancer patients) is given as “no benefit”. In addition, the median overall survival in experiment [1] (pancreatic cancer patients, folfirinox: recent phase III study) is 11.1 months.
